Experimental data reported in patent publication US20080044419A1, “Treatment of T Cell Mediated Diseases by Inhibition of Fgfr3” (Fibron Ltd., priority 2003, published 2008).

Columns and labels:
[1] = tested on: Collagen Induced Arthritis (CIA) mice; assay: Murine Collagen Induced Arthritis (CIA) model, paw edema; format: in vivo; conditions: i.p. daily injections
Description: Murine collagen-induced arthritis (CIA) is considered a useful model for studying human RA since the two diseases share numerous pathologic, immunological, and genetic features. The CIA model in mice results in a symmetric polyarthritis in which bone and cartilage erosion typically occur, 2-4 weeks after immunization with […] type II collagen on complete Freud's adjuvant (CFA).
Male DBA/l mice (8-10 weeks old) were subject to an intradermal injection at the base of the tail with 200 μg type II collagen purified from bovine articular cartilage emulsified in CFA. The mice received a booster injection of 200 μg type II collagen emulsified in CFA three weeks after the first dose.
The mice were checked daily and each animal with edema in one or more limbs was randomly assigned to one of several groups for further treatment. The thickness of each affected hind paw was measured with microcalipers. The results are expressed as a direct measure of paw width in millimeters.
Each mouse was injected intraperitoneally on the day following disease onset (day 1) with 100 ug anti-FGFR3-ScFv or anti-FGFR3 Fab′ or 20 mg/kg of a FGFR3 specific tyrosine kinase (TK) inhibitor (SU5402, Calbiochem, La Jolla, Calif.), followed by daily injections with 300 μg anti-FGFR3 ScFv or anti-FGFR3 Fab′ or with 20 mg/kg SU5402.

[2] = tested on: cutaneous delayed type hypersensitivity reactions in mice; assay: Delayed type hypersensitivity (DTH) assay, oxazolone, ear thickness; format: in vivo; conditions: treated mice, oxazolone challenge, measured after 24 hours
Description: The mouse model for cutaneous delayed type hypersensitivity reactions was used to investigate the effects of FGFR3 inhibitors on induced skin inflammation. Oxazolone solutions (2% and 0.5%) were prepared by dissolving 200 and 50 mg, respectively, of oxazolone in 8 ml of acetone and 2 ml of olive oil. Mice were challenged with oxazolone by topical application onto the abdomen of each mouse (100 μl of 2% oxazolone) followed by 10 μl of 0.5% oxazolone on the right ear after 6 days. Differences between right and left ear thickness, indicating DTH development, were measured after 24 hours using a microcaliper.

In the case of Cc1c[nH]c(/C=C2\C(=O)Nc3ccccc32)c1CCC(=O)O [SU5402], the “reduction in paw edema” value [1] is reported as “significant reduction” and the “DTH reaction: induction of edema (ear thickness difference)” value [2] is reported as “no induction of edema”.
